According to patent US9302996B2, “Continuous arycyclic compound” (MITSUBISHI TANABE PHARMA CORPORATION, priority 2010, dated 2016):
Read-outs that look alike come from different tables or passages of the source. Marks after values point to notes of the source that are not given here.

Tests used:
Type in all cases: in vivo
[1] = test system: KK-Ay mice; assay: Weight gain-inhibiting action, hypoglycemic effect, insulin in blood plasma lowering action in KK-Ay mice; settings: male KK-Ay mice, high fat diet, 2 weeks; for inhibition in vivo at 30 mg/kg: Mus musculus, 336 h, 30 mg/kg/day oral
Experimental: To 8 weeks-old male KK-Ay mice were provided high fat diet (Oriental Yeast Co., Ltd, 60 cal % fat), and Test compound suspended in 0.2% carboxymethylcellulose solution was orally administered once a day. Oral administration was continued for 2 weeks, and a weight gain-inhibiting rate of the Test compound was calculated by using a weight gain amount of the solvent control group during the test period as 100%. After final administration, the mice were fasted overnight, and blood was collected from tail vein. Measurement of a blood-sugar level was carried out by using glucose Cα Test Wako (Wako Pure Chemical Industries, Ltd.), and measurement of insulin in blood plasma was carried out by using a mouse insulin measurement kit (Morinaga Institute of Biological Science, Inc.).

[2] = test system: ICR mice; assay: Triglyceride (TG) in blood plasma increase-inhibiting action due to lipid administration; settings: Mus musculus; male ICR mice, 5 mg/kg oral, lipid (Intralipos 20%) after 30 minutes, plasma TG 2 hours after lipid; read-out: Inhibiting rate of TG-increase in blood plasma (5 mg/kg)
Experimental: 6 to 9 weeks-old male ICR mice were fasted overnight, and Test compound suspended in 0.2% carboxymethyl cellulose solution was orally administered to the mice. A lipid (Intralipos 20%, OTSUKA PHARMACEUTICAL CO., LTD., 10 mL/kg) was orally administered after 30 minutes. Blood was collected from tail vein immediately before the lipid administration, and after 2 hours from the same to obtain blood plasma. Measurement of TG in blood plasma was carried out by using a triglyceride E Test Wako (Wako Pure Chemical Industries, Ltd.), and an increased value of TG in blood plasma by administration of the lipid was calculated. An increased value of TG in blood plasma in a solvent control group was used as a control, and an inhibiting rate in increase of TG in blood plasma in the Test compound administered group was calculated.

[3] = test system: C57BL/6J mice; assay: Antifeeding activity (high fat diet intake up to 4 hours); settings: Mus musculus, male C57BL/6J mice, 5 mg/kg oral, food ingested up to 4 hours, read-out: Antifeeding rate (5 mg/kg)
Experimental: 7 to 10 weeks-old male C57BL/6J mice were fasted overnight, and the test compound suspended in 0.2% carboxymethylcellulose solution was orally administered. Immediately after the administration, high fat diet (Oriental Yeast Co., Ltd, 60 cal % fat) was provided and freely fed. An amount of food ingested up to 4 hours was measured, and a lowering rate (an antifeeding rate) of the amount of food ingested in the Test compound administered group was calculated as compared to that of the solvent control group as a control.

[4] = read-out: Hypoglycemic action (30 mg/kg/day)
[5] = read-out: Insulin in blood plasma-lowering action (30 mg/kg/day)
[6] = administration dose of 1 mg/kg/day oral

Row | SMILES | inhibition in vivo at 5 mg/kg [2] | inhibition in vivo at 5 mg/kg [3] | other results
1 | CC(C)(COc1ccc(-c2ccc(-c3ncc(C(F)(F)F)[nH]3)cn2)cc1)C(=O)O [Example 1-3), 2,2-dimethyl-3-(4-{5-[5-(trifluoromethyl)-1H-imidazol-2-yl]pyridin-2-yl}phenoxy)propanoic acid] |  |  | inhibition in vivo at 30 mg/kg [1, 4]: 43%; inhibition in vivo at 30 mg/kg [1, 5]: 58%
2 | CC(C)(COc1ccc(-c2ccc(-c3ncc(C(C)(C)C(F)(F)F)[nH]3)cn2)cc1)C(=O)O [Example 2-2), 2,2-dimethyl-3-(4-{5-[5-(2,2,2-trifluoro-1,1-dimethylethyl)-1H-imidazol-2-yl]pyridin-2-yl}phenoxy)propanoic acid] | 76% | 64% | 
3 | CC(C)(COc1ccc(-c2ccc(-c3ncc(C(C)(C)C(F)(F)F)[nH]3)cn2)cc1)C(=O)O [Example 2-3), sodium 2,2-dimethyl-3-(4-{5-[5-(2,2,2-trifluoro-1,1-dimethylethyl)-1H-imidazol-2-yl]pyridin-2-yl}phenoxy)propanoate] |  |  | inhibition in vivo at 30 mg/kg [1, 4]: 64%; inhibition in vivo at 30 mg/kg [1, 5]: 62%; inhibition in vivo at 30 mg/kg ([1]; read-out: Weight gain-inhibiting action (30 mg/kg/day)): 53%
4 | Cc1cc(-c2ccc(-c3ncc(C(F)(F)F)[nH]3)cn2)ccc1OCC(C)(C)C(=O)O [Example 8-2), 2,2-dimethyl-3-[2-methyl-4-[5-[5-(trifluoromethyl)-1H-imidazol-2-yl]-2-pyridyl]phenoxy]propanoic acid] | 46% | 57% | 
5 | Cc1cc(OCC(C)(C)C(=O)O)ccc1-c1ccc(-c2ncc(C(F)(F)F)[nH]2)cn1 [Example 9] | 75% | 76% | 
6 | Cc1nc(OCC(C)(C)C(=O)O)ccc1-c1ccc(-c2ncc(C(F)(F)F)[nH]2)cn1 [Example 10] | 62% | 62% | 
7 | O=C(O)CCCOc1ccc(-c2ccc(-c3ncc(C(F)(F)F)[nH]3)cn2)cc1 [Example 11] | 31% |  | 
8 | CC(C)(COc1ccc(-c2ccc(-c3ncc(CC(F)F)[nH]3)cn2)cc1)C(=O)O [Example 12] | 51% | 40% | 
9 | CC(C)(COc1ccc(-c2ccc(-c3ncc(C(F)(F)F)[nH]3)cn2)cn1)C(=O)O [Example 13-3), 2,2-dimethyl-3-[[5-[5-[4-(trifluoromethyl)-1H-imidazol-2-yl]-2-pyridyl]-2-pyridyl]oxy]propanoic acid] | 51% | 60% | 
10 | O=C(O)CCCCOc1ccc(-c2ccc(-c3ncc(C(F)(F)F)[nH]3)cn2)cc1 [Example 15] | 32% |  | 
11 | O=C(O)C1(COc2ccc(-c3ccc(-c4ncc(C(F)(F)F)[nH]4)nc3)cn2)CCCC1 [Example 16] | 74% | 75% | 
12 | O=C(O)C1(COc2ccc(-c3ccc(-c4ncc(C(F)(F)F)[nH]4)cn3)cn2)CCCC1 [Example 17] | 69% | 82% | 
13 | CC(C)(CCOc1ccc(-c2ccc(-c3ncc(C(F)(F)F)[nH]3)cn2)cc1)C(=O)O [Example 18-2), 2,2-dimethyl-4-[4-[5-[5-(trifluoromethyl)-1H-imidazol-2-yl]-2-pyridin]phenoxy]butanoic acid] | 69% | 83% | 
14 | CCC(CC)(COc1ccc(-c2ccc(-c3ncc(C(F)(F)F)[nH]3)cn2)cc1)C(=O)O [Example 19-3), 2-ethyl-2-[[4-[5-[4-(trifluoromethyl)-1H-imidazol-2-yl]-2-pyridyl]phenoxy]methyl]butanoic acid] | 89% | 78% | 
15 | O=C(O)C1(COc2ccc(-c3ccc(-c4ncc(C(F)(F)F)[nH]4)cn3)cc2)CCCC1 [Example 20] | 74% | 70% | 
16 | O=C(O)C1(COc2ccc(-c3ccc(-c4ncc(C(F)(F)F)[nH]4)cn3)cc2)CCOCC1 [Example 21] | 20% |  | 
17 | CC(C)(COc1ccc(-c2ccc(-c3ncc(CCC(F)(F)F)[nH]3)cn2)cc1)C(=O)O [Example 24] | 33% |  | 
18 | CC(C)CCc1cnc(-c2ccc(-c3ccc(OCC(C)(C)C(=O)O)cc3)nc2)[nH]1 [Example 25] | 54% | 81% | 
19 | CC(C)(COc1ccc(-c2ccc(-c3ncc(CC4CC4)[nH]3)cn2)cc1)C(=O)O [Example 27] | 69% | 66% | 
20 | CC(C)c1cnc(-c2ccc(-c3ccc(OCC(C)(C)C(=O)O)cc3)nc2)[nH]1 [Example 28] | 59% | 54% | 
21 | CCC(CC)c1cnc(-c2ccc(-c3ccc(OCC(C)(C)C(=O)O)cc3)nc2)[nH]1 [Example 29] | 52% | 28% | 

Row | SMILES | inhibition in vivo at 5 mg/kg [2] | inhibition in vivo at 5 mg/kg [3] | other results
22 | CC(C)(COc1ccc(-c2ccc(-c3ncc(C4CCC(F)(F)CC4)[nH]3)cn2)cc1)C(=O)O [Example 34] | 19% |  | 
23 | Cc1cc(OCC(C)(C)C(=O)O)ncc1-c1ccc(-c2ncc(C3(C(F)(F)F)CCC3)[nH]2)nc1 [Example 46] | 13% |  | 
24 | CC(C)(COc1cnc(-c2ccc(-c3ncc(C4(C(F)(F)F)CCC4)[nH]3)cc2)cn1)C(=O)O [Example 48] | 23% |  | 
25 | CC(C)(COc1cnc(-c2ccc(-c3ncc(C(C)(C)C(F)(F)F)[nH]3)cc2)cn1)C(=O)O [Example 50] | 21% |  | 
26 | Cc1cc(OCC(C)(C)C(=O)O)ncc1-c1ccc(-c2ncc(C3(C(F)(F)F)CCC3)[nH]2)c(F)c1 [Example 52] | 26% |  | 
27 | CC(C)(COc1ccc(-c2ccc(-c3ncc(C(C)(C)C(F)(F)F)[nH]3)c(F)c2)cn1)C(=O)O [Example 53] | 36% |  | 
28 | CC(C)(COc1ccc(-c2ccc(-c3ncc(C4CCC4)[nH]3)cn2)cc1)C(=O)O [Example 55-2), 3-[4-[5-(5-cyclobutyl-1H-imidazol-2-yl)-2-pyridyl]phenoxy]-2,2-dimethylpropanoic acid] |  | 39% | 
29 | CC(C)(COc1ccc(-c2ccc(-c3ncc(C(C)(C)C)[nH]3)cn2)cc1)C(=O)O [Example 57] | 43% |  | 
30 | CC(C)(COc1ccc(-c2ccc(-c3ncc(C(F)(F)F)[nH]3)cn2)c(F)c1F)C(=O)O [Example 75] | 5% |  | 
31 | CC(C)(COc1ccc(-c2ccc(-c3ncc(C(F)(F)F)[nH]3)c(F)c2F)cn1)C(=O)O [Example 80] | 41% |  | 
32 | CC(C)(COc1ccc(-c2ccc(-c3nc(C(F)(F)F)c[nH]3)cn2)cc1)C(=O)O [Example 94-3), 2,2-dimethyl-3-[4-[5-[4-(trifluoromethyl)-1H-imidazol-2-yl]-2-pyridyl]phenoxy]propanoic acid] |  |  | Hypoglycemic action [1, 6]: 42%*; Insulin in blood plasma-lowering action [1, 6]: 29%*
33 | Cc1cc(OCC2(C(=O)O)CC2)ncc1-c1ccc(-c2ncc(C(F)(F)F)[nH]2)c(Cl)c1 [Example 100-5), 1-{[(5-{3-chloro-4-[5-(trifluoromethyl)-1H-imidazol-2-yl]phenyl}-4-methylpyridin-2-yl)oxy]methyl}cyclopropanecarboxylic acid] | 60% |  | 
34 | Cc1cc(OCC(C)(C)C(=O)O)ncc1-c1ccc(-c2ncc(CC(C)C)[nH]2)c(C)c1 [Example 103] | 8% |  | 
35 | CC(C)(COc1ncc(-c2ccc(-c3ncc(C4(C(F)(F)F)CC4)[nH]3)cc2)cc1F)C(=O)O [Example 111] | 41% |  | 
36 | CCC(CC)(COc1cc(C)c(-c2ccc(-c3ncc(C(F)(F)F)[nH]3)nc2)cn1)C(=O)O [Example 127] | 44% |  | 
37 | COc1cc(-c2cnc(OCC(C)(C)C(=O)O)cc2C)ccc1-c1ncc(C(F)(F)F)[nH]1 [Example 129] | 16% |  | 
38 | Cc1cc(OCC(C)(C)C(=O)O)ncc1-c1ccc(-c2ncc(C(F)(F)F)[nH]2)c(C2CC2)c1 [Example 131] | 57% |  | 
39 | Cc1cc(OCC2(C(=O)O)CC2)ncc1-c1cnc(-c2ncc(C(F)(F)F)[nH]2)c(Cl)c1 [Example 139] | 52% |  | 
40 | CC(C)(COc1ncc(-c2ccc(-c3ncc(C4(C(F)(F)F)CCC4)[nH]3)cc2)cc1F)C(=O)O [Example 144] | 7% |  | 
41 | Cc1cc(-c2cnc(OCC(C)(C)C(=O)O)nc2)ccc1-c1ncc(C(F)(F)F)[nH]1 [Example 145] | 43% |  | 
